This is an account of results in US10813914B2, “Composition for controlling microsporidia in fishes and method for controlling microsporidia in fishes using same” (MARUHA NICHIRO CORPORATION, priority 2016, dated 2020).

Marks after values point to notes of the source that are not given here.

For test [1], the system named is microsporidian cyst (beko cyst), beko disease. The experiment in a line: Prevention test of beko disease in Mojako using fenbendazole (1-1). As to conditions: 20 mg/kg Bw oral, 6 times/week, 6 weeks, 10 fishes tested; for Positive average per fish (average number of beko cyst per fish): p < 0.05 vs control. The class given is in vivo, “Mojako” (yellowtail larva). How it is done:
1-1: Prevention Test of Beko Disease in “Mojako” Using Fenbendazole
The prevention test was conducted according to the following procedure.
(§1) Test number: Live 1000 fishes (each initial body weight: 12 g)
(§2) Administration method: oral administration (feed together with spreading agent)
Drug used: fenbendazole (compound represented by the above-described formula (1))
(§3) Administration amount: 20 mg/kg Bw (20 mg per kg of fish body weight)
Interval between administration: 6 times/week
A sampling test was carried out according to the following procedure:
Six weeks after the start of administration, each 10 fishes of “Mojako” were taken out from each test group (a control group (the test was conducted under the same conditions as the above-described test conditions, except that the feed fed contained no fenbendazole) and a fenbendazole group), and each fish was cut into three pieces. It was then visually tested whether the microsporidian cyst (beko cyst) was found in the pieces. When the beko cyst was observed, it was judged as positive and the results were accumulated. Regarding the beko cyst that could be confirmed with the naked eye, the number was confirmed and the average infection number per one fish was determined.

Test [2] shares this test system. As to the kind of experiment: Prevention test of beko disease in Mojako using flubendazole (1-2). In kind it is in vivo, “Mojako” (yellowtail larva). The settings on record: 20 mg/kg Bw oral, 6 times/week, 4 weeks, 10 fishes tested; for Positive average per fish (average number of beko cyst per fish): p < 0.05 vs control. The procedure:
1-2. Prevention Test of Beko Disease in “Mojako” Using Flubendazole
A preliminary test was carried out according to the following procedure:
as §1, §2
Drug used: flubendazole (compound represented by the above-described formula (6))
as §3
(§4) Administration interval: 6 times/week
Sampling test procedure: same as above 1-1

The test system is the same in test [3]. As to the kind of experiment: Prevention test of beko disease in Kanpachi using triclabendazole (1-8). The class given is in vivo, “Kanpachi” (great amberjack). As to conditions: 40 mg/kg Bw oral, 6 times/week. How it is done: A Prevention test of the beko disease in “Kanpachi” was carried out using triclabendazole. The preliminary test was performed according to the following procedure:
Test number: Live 1000 fishes (each initial body weight: 50 g)
as §2
Drug used: triclabendazole (compound represented by the above-described formula (10))
Administration amount: 40 mg/kg Bw (40 mg per kg of fish body weight)
as §4
Sampling test procedure: same as in the above-described 1-1

The test system of another test is Heterosporis anguillarum. The settings on record: beko disease of eels, Non-Patent Document 2; cited from earlier work.
The next test relates to microsporidia. As to conditions: culture test, Non-Patent Documents 3 to 7; cited from earlier work.
Another test concerns Glugea plecoglossi. The settings on record: glugeosis of Ayu, Non-Patent Document 1; cited from earlier work.

Consider `COC(=O)Nc1nc2cc(Sc3ccccc3)ccc2[nH]1` [Fenbendazole, fenbendazole], for which, in test [1], the “Number of Beko cyst” value was determined as 30, the “Number of positive fishes” value was found to be 6 and the “Positive average per fish (average number of beko cyst per fish)” value (“Positive average per fish” for short) is reported as 3.5 ± 3.83. Besides, the “Positive average per fish” value in test [1] (listed as fenbendazole) came out at 3.5±3.83.

Turning to `COC(=O)Nc1nc2cc(C(=O)c3ccc(F)cc3)ccc2[nH]1` [Flubendazole, flubendazole], in test [2], the “Number of Beko cyst” value is listed as 10, the “Number of positive fishes” value amounted to 5 and the “Positive average per fish” value was determined as 1.0 ± 1.1. The “Positive average per fish” value in test [2] (listed as flubendazole) amounted to 1.0±1.1.

Turning to `CSc1nc2cc(Cl)c(Oc3cccc(Cl)c3Cl)cc2[nH]1` [Triclabendazole, triclabendazole], the “Positive fishes (beko cyst) / fishes sampled” value was 0/50*** in test [3] (8 Weeks, p < 0.001, 40 mg/kg); “significantly suppressed generation of the beko cyst” in test [3] (8 Weeks, p < 0.001, listed as triclabendazole, 40 mg/kg); 0/20 in test [3] (at administration start time).

For the compound `CO[C@@H]1[C@H](OC(=O)/C=C/C=C/C=C/C=C/C(=O)O)CC[C@]2(CO2)[C@H]1[C@@]1(C)O[C@@H]1CC=C(C)C` [fumagillin], the Therapeutic efficacy entry in the test with Heterosporis anguillarum and with Glugea plecoglossi was “high therapeutic efficacy was recognized” in each case. The “Antimicrobial activity against microsporidia” value in the test on microsporidia was “high antimicrobial activity”.
